Test results as given in patent US20100016228A1, “TRUNCATED BARD1 PROTEIN, AND ITS DIAGNOSTIC AND THERAPEUTIC USES” (Ayanda Biosystems SA, priority 2000, published 2010).
Like-named read-outs stand apart in the source and are kept apart here. Non-standard residues stand in square brackets, D forms with d. Residues, ends and D or L forms follow the SMILES beside them. Nle = CCCC[C@H](N)C(=O)O

Key:
[1] = system: human BARD1 protein (SEQ ID NO:1); assay: in vitro cleavage of 35S-labeled human BARD1 by NaB-treated SW48 cell extracts, inhibition by protease inhibitors; type: biochemical
Procedure: (§1) The human BARD1 protein (SEQ ID NO:1), labeled with ^35S-methionine, was transcribed and translated in vitro using the TNT coupled reticulocytes lysate system kit (Promega). 1 μg of plasmid was used in a reaction medium for the transcription and the translation, containing 4 μl of ^35S-methionine (NEN). For the in vitro cleavage, 2 μl of transcription/translation products were incubated with apoptotic or nonapoptotic cell extracts prepared in a DIV buffer (20 mM HEPES. PH 7.5, 10 mM NaCl, 1.5 mM MgCl2, 0.1% SB14, 0.5 mM PMSF) at 37° C. for the period of time indicated. […] Inhibition of the cleavage was evaluated by adding caspase inhibitors or a proteasome inhibitor (lactacystine) (Calbiochem) or the calpain inhibitor I (ALLnL) (Chemicon).
To define the proteolytic activity responsible for the cleavage of hBARD1 (SEQ ID NO:1), various preparations of cell extracts from SW48 cells treated with NAB were tested. It appears that both the nuclear preparations and the mitochondrial preparations were capable of cleaving hBARD1 (SEQ ID NO:1). The supernatant at 13,000×g of the organelle preparation had no effect.

SW48 cells = assay: NaB treatment of SW48 cells: induction of BARD1 and calpastatin cleavage; type: cell-based, human; settings: SW48 cells treated with NaB
Procedure: Apoptosis was induced by treatment with sodium butyrate (NaB). The cells at different stages of confluence were treated in complete medium at 37° C. and with 5 mM of NaB (Sigma) for various periods of time. The apoptotic bodies were purified as previously described (Gautier et al., 1999):
as §1
The SW48 cells were arrested in G0 by contact inhibition in 175 cm^2 flasks. After confluencing for 3 days, the cells were split 1:10 in 75 cm^2 flasks at a concentration of 3×10^6 cells per flask. 12, 20, 28, 36 and 44 hours after seeding, the cells were treated with 5 mM of NaB for 24 hours and collected. To determine the cell cycle distribution at each time, the content of each flask was subjected to trypsinization, washed three times in 10 ml of ice-cold PBS, and fixed with 1 ml of ice-cold 70% ethanol, added dropwise, for 16 hours at −20° C. The fixed cells were pelletted, resuspended in 500 μl of PC buffer (96% 0.2M Na2HPO4, 4% 15 0.1M citric acid, pH 7.8) and left at ambient temperature for 30 minutes. They were then washed and resuspended in 500 μl of propidium iodide in a staining solution (PBS, 0.12% Triton X-100, 0.12 mM EDTA, 100 μg/ml RNase A), incubated for 30 minutes at 37° C. and analyzed on a FACScan (flow cytometer) (Beckton Dickinson). […]

caspases 3, 6 and 8 = assay: caspase activity in extracts of NaB-treated SW48 cells (fluorogenic substrates); type: cell-based, human; settings: during NaB treatment of SW48 cells; caspase 3 most active after 6 and 12 hours
Procedure: For assaying the caspase activity, 10 μg of cell extracts were diluted in 5 μl of DIV buffer:
Acetyl-Asp-Glu-Val-Asp-7-amino-4-methylcoumarin (Ac-DEVD-AMC), acetyl-Val-Glu-Ile-Asp-7-amino-4-methylcoumarin (Ac-VEID-AMC) and […] (Bachem), substrates for caspases 3, 6 and 8, respectively, were added at a final concentration of 50 μM. The cleavage activity was controlled on Fluorolite 1000 (Dynatech laboratories).

PROb tumors = assay: vaccination of BDIX rats, then subcutaneous PROb tumor challenge; type: in vivo; settings: three weekly intraplantar injections of 100 μg in complete Freund's adjuvant; PROb cells s.c. two weeks after final immunization; versus control protein (fucosyl transferase)
Procedure: Two groups of BDIX rats were given three weekly intraplantar injections of 100 μg of F1 fragment (amino acids 460-611) of BARD1 (SEQ ID NO:9) or of a controlled protein (fucosyl transferase) purified under the same conditions as the F1 fragment. The proteins were emulsified in 100 μl of complete Freund's adjuvant. Two weeks after the final immunization, the rat colon tumor cells (PROb, 50×10^3/rat) were injected subcutaneously and the volume of the PROb tumors was estimated.

In the case of “benzyloxycarbonyl-Asp-Glu-Val-Asp-fluoromethylketone [Z-DEVD-frnk]”, the “inhibition of the hydrolysis of hBARD1” value [1] is reported as “no effect”.

In the case of `CCCC(=O)[O-].[Na+]` [NaB, sodium butyrate], the “treatment time after which BARD1 cleavage was virtually complete” value (SW48 cells) is reported as ~12 h, the “treatment time after which calpastatin was completely cleaved” value (SW48 cells) is reported as 12 h and the “treatment time after which the p67 protein appeared” value (SW48 cells) is reported as 4 h. The “activities of caspases 3, 6 and 8” value (caspases 3, 6 and 8) was “gradually increased”.

“benzyloxycarbonyl-Val-Ala-Asp-fluoromethylketone [ZVAD-fmk]” was tested, and the “inhibition of the hydrolysis of hBARD1” value ([1]; high concentration (100 μM)) was “slightly inhibited”.

In the case of `CC(=O)N[C@@H](CSC(=O)[C@]1([C@@H](O)C(C)C)NC(=O)[C@H](C)[C@@H]1O)C(=O)O` [lactacystine], the “blocking of the proteolysis of hBARD1” value ([1]; even at concentrations of 100 μm) is reported as “does not block”.

For `O=C(O)CN(CCOCCOCCN(CC(=O)O)CC(=O)O)CC(=O)O` [EGTA], the “inhibition of the hydrolysis of hBARD1” value [1] was “inhibited” and the “inhibition of the hydrolysis of hBARD1” value ([1]; dose-dependent manner) was “strongly inhibited”.

In the case of “benzyloxycarbonyl-Val-Glu-Ile-Asp-fluoromethyl ketone [Z-VEID-fmk]”, the “inhibition of the hydrolysis of hBARD1” value [1] is reported as “no effect”.

In the case of `CCCC[C@@H](C=O)NC(=O)[C@H](CC(C)C)NC(=O)[C@H](CC(C)C)NC(C)=O` [ALLnL, N-acetyl-leu-leu-norleucinal] (Ac-Leu-Leu-[Nle]-aldehyde), the “inhibition of the hydrolysis of hBARD1” value [1] is reported as “inhibited” and the “inhibition of the hydrolysis of hBARD1” value ([1]; dose-dependent manner) is reported as “strongly inhibited”.

B1: BARD1 fragment: F1 fragment (amino acids 460-611) of rat BARD1 with N-terminal 6xHis tag, expressed in E. coli (protein, listed as Rattus norvegicus)
chain: SHGHLKIVELLLQHNALVNTTGYHNDSPLHDAAKNGHIDIVKVLLSHGASRNAVNIFGERPVDYTDAENIRSLLLLPEKTDSFSTSQCSVQVNTGQRKSGPLVLIGSGLSSQQQKLLSKLETVLKAKKCAEFDNTVTHVIVPDEEAQSTLKC
modifications: N-terminal 6xHis tag
notes: F1 fragment (amino acids 460-611) of rat BARD1 with N-terminal 6xHis tag, expressed in E. coli
With B1 the “PROb tumor growth (tumor volume)” value (PROb tumors) was “slowing down of tumor growth”.
